# Assay results from patent publication US12291501B2 (University of Florida Research Foundation, Inc., priority 2021, dated 2025).
# Where “and” joins values, the source holds several entries; their conditions need not be identical. Equal values may be shown once. Read-outs that look alike come from different tables or passages of the source.
# Experiments:
# α7 nAChR [1] = target: T1, α7 nAChR (Homo sapiens, UniProt P36544); details: cited from earlier work; for Agonist character at α7: earlier reports / Papke et al. (2022)
# T1 construct: expressed in transfected cells; host or cells: Xenopus laevis oocytes, injected with in vitro transcribed RNA
# T1 sequence (P36544 23-502): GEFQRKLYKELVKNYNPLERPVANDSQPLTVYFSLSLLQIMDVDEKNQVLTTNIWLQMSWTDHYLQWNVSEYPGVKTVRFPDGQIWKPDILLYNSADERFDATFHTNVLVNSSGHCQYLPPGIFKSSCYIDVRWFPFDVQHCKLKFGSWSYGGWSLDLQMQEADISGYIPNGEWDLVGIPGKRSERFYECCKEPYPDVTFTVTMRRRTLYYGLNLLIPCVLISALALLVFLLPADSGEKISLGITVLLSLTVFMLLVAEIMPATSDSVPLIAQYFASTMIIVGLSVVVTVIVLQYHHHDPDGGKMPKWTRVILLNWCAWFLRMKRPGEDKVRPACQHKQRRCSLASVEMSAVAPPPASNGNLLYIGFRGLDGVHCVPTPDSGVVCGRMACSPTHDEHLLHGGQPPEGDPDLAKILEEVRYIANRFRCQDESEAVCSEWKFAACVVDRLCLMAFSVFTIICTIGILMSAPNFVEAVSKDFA
# α9 nAChR [2] = target: T2, α9 nAChR (Homo sapiens, UniProt Q9UGM1); details: earlier reports / Papke et al. (2022), Richter et al. (2022); cited from earlier work
# T2 construct: expressed in transfected cells; host or cells: Xenopus laevis oocytes, injected with in vitro transcribed RNA
# T2 sequence (Q9UGM1 26-479 limits assumed): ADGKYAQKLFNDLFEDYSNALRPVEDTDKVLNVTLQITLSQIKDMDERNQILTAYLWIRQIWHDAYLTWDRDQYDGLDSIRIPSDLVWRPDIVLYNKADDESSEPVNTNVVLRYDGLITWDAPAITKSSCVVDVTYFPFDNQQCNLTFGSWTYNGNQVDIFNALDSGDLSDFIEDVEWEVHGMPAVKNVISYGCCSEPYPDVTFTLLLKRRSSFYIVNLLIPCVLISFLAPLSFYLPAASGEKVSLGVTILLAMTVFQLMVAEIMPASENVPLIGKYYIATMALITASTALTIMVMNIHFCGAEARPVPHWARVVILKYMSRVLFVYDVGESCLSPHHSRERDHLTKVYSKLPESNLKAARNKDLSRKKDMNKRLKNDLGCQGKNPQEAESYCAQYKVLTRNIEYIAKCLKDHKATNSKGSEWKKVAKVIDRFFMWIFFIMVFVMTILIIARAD
# α9α10 nAChR [3] = target: T3, α9α10 nAChR (Homo sapiens, UniProt Q9GZZ6+Q9UGM1); details: relative to ACh (Imax = 1); data taken from Papke et al. (2022); cited from earlier work
# T3 construct: expressed in transfected cells; host or cells: Xenopus laevis oocytes, injected with in vitro transcribed RNA
# T3 sequence (Q9UGM1 26-479 limits assumed): as above
# T3 sequence (Q9GZZ6 25-450): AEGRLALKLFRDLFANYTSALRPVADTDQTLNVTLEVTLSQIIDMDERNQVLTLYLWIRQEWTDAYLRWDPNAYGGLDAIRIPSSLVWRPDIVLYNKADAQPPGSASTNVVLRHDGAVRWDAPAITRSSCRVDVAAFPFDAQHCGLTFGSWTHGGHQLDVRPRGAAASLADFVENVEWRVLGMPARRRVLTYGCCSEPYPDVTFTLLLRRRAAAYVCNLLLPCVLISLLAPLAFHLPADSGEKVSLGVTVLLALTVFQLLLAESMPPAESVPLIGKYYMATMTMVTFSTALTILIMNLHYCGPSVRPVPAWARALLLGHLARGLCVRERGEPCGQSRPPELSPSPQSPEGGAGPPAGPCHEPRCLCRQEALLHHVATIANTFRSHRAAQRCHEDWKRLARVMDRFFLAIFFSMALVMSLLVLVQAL
# α7 nAChR [4] = target: T1, α7 nAChR; assay: Two-electrode voltage-clamp, agonist concentration-response, α7 nAChR in Xenopus oocytes; assay type: cell-based
# Text: (§1) Electrophysiology: Xenopus oocytes were microinjected with RNAs to produce functional nAChR which were characterized by two-electrode voltage-clamp measurements. FIGS. 5A-7D present concentration-response curves for the new compounds evaluated with α7, α9, and α9α10 receptors. Table 1 presents the values for Imax and EC50 with these receptors and Table 2 summarizes inhibition data for the compounds with heteromeric nAChR.
# (§2) Molecular Biology: Plasmid DNAs encoding the human α7 and heteromeric nAChR were obtained from Jon Lindstrom (University of Pennsylvania, Philadelphia, PA). Mouse muscle subunit clones were obtained from Jim Boulter (Salk Institute, La Jolla CA) and Paul Gardner (Dartmouth, Hanover NH). […] Plasmid DNA encoding the human α10 nAChR was obtained from J. Michael McIntosh. Plasmid DNA encoding the human α9 nAChR and the human receptor-associated protein of the synapse (RAPSYN) with codon optimization for expression in Xenopus laevis were obtained from Katrin Richter. […] After linearization and purification of the plasmid DNAs, RNAs were prepared using the mMessage mMachine in vitro RNA transcription kit (Ambion, Austin, TX). […] Oocytes were maintained in Barth's solution containing 0.32 mM Ca(NO3)2 and 0.41 mM CaCl2, and recordings were conducted 2-20 days after injection.
# (§3) Electrophysiology: Two-electrode voltage-clamp experiments were conducted using OpusXpress 6000A (Molecular Devices, Union City CA, USA). Both the voltage and current electrodes were filled with 3 M KCl. Oocytes were voltage-clamped at −60 mV at rt.
# (§4) The responses were calculated as both peak-current amplitudes and net charge. Data were collected at 50 Hz, filtered at 20 Hz, and analyzed by Clampfit (Molecular Devices) and Excel (Microsoft, Redmond, WA, United States). Data are expressed as means±SEM from at least five oocytes for each experiment and plotted with Kaleidagraph 4.5.2 (Abelbeck Software, Reading, PA, United States). Each episode of data acquisition was a total of 210 s and included an initial 30 s period used to define the baseline for the drug-evoked responses. After 30 s, drugs were applied, and the following 120 s were defined as the drug response period for analysis. […] The values for the curve fits were generated using the Levenberg-Marquardt algorithm to obtain the best Chi-Square fit to the Hill equation using the Kaleidagraph 4.5.2 plotting program. The errors in the tables are the calculated standard errors of the fit parameters based on the goodness of fit.
# α9 nAChR [5] = target: T2, α9 nAChR; assay: Two-electrode voltage-clamp, agonist concentration-response, α9 nAChR in Xenopus oocytes; assay type: cell-based
# Text: as §1
# (§5) Molecular Biology: Plasmid DNAs encoding the human α7 and heteromeric nAChR were obtained from Jon Lindstrom (University of Pennsylvania, Philadelphia, PA). Mouse muscle subunit clones were obtained from Jim Boulter (Salk Institute, La Jolla CA) and Paul Gardner (Dartmouth, Hanover NH). The human resistance-to-cholinesterase 3 ([…]) clone was obtained from Millet Treinin (Hebrew University, Jerusalem, Israel) and RNA co-injected with α7 to improve the level and speed of receptor expression without affecting their pharmacological properties. Plasmid DNA encoding the human α10 nAChR was obtained from J. Michael McIntosh. Plasmid DNA encoding the human α9 nAChR and the human receptor-associated protein of the synapse (RAPSYN) with codon optimization for expression in Xenopus laevis were obtained from Katrin Richter. RAPSYN RNA was co-injected with the α9 and α10 to improve expression (Richter et al., (2022) Front. Cell Neurosci. 16: 779081). After linearization and purification of the plasmid DNAs, RNAs were prepared using the mMessage mMachine in vitro RNA transcription kit (Ambion, Austin, TX). Frogs were maintained in the Animal Care Service facility of the University of Florida, and all procedures were approved by the University of Florida Institutional Animal Care and Use Committee (approval number 202002669). In brief, the animals were first anesthetized for 15-20 min in 1.5 l frog tank water containing 1 g of MS-222 buffered with sodium bicarbonate. Oocytes were obtained surgically from mature female Xenopus laevis (Nasco, Ft. Atkinson WI, USA) and treated with 1.4 mg/ml type 1 collagenase (Worthington Biochemicals, Freehold NJ, USA) for 2-4 h at rt in Ca2+-free Barth's solution (88 mM NaCl, 1 mM KCl, 2.38 mM NaHCO3, 0.82 mM MgSO4, 15 mM HEPES, and 12 mg/l tetracycline, pH 7.6) to remove the ovarian tissue and the follicular layers. Stage V oocytes were injected with 4-6 ng CHRNA7 RNA and 2-3 ng RIC3 RNA (2:1 ratio) in 50 nl water, or with 12 ng CHRNA9 RNA and 3 ng RAPSN RNA, or along with 12 ng CHRNA10 RNA in 50 nl water. Oocytes were maintained in Barth's solution containing 0.32 mM Ca(NO3)2 and 0.41 mM CaCl2, and recordings were conducted 2-20 days after injection.
# (§6) Electrophysiology: Two-electrode voltage-clamp experiments were conducted using OpusXpress 6000A (Molecular Devices, Union City CA, USA). Both the voltage and current electrodes were filled with 3 M KCl. Oocytes were voltage-clamped at −60 mV at rt. The oocytes were perfused with Ringer's solution (115 mM NaCl, 2.5 mM KCl, 1.8 mM CaCl2, 10 mM HEPES, 1 μM atropine, pH 7.2) at 2 ml/min. […] Drug applications were 12 s in duration followed by 181 s washout periods.
# as §4, with “The errors in the tables are the calculated standard errors of the fit parameters based on the goodness of fit.” left out
# α1β1εδ nAChR = target: T4, α1β1εδ nAChR (Mus musculus, UniProt P02716+P04756+P09690+P20782); assay: Inhibition of control ACh responses by co-application, muscle α1β1εδ nAChR in oocytes; assay type: cell-based; details: 3 μM compound co-applied with ACh; fraction of control ACh response
# T4 construct: expressed in transfected cells; host or cells: Xenopus laevis oocytes
# T4 sequence (P04756 21-457): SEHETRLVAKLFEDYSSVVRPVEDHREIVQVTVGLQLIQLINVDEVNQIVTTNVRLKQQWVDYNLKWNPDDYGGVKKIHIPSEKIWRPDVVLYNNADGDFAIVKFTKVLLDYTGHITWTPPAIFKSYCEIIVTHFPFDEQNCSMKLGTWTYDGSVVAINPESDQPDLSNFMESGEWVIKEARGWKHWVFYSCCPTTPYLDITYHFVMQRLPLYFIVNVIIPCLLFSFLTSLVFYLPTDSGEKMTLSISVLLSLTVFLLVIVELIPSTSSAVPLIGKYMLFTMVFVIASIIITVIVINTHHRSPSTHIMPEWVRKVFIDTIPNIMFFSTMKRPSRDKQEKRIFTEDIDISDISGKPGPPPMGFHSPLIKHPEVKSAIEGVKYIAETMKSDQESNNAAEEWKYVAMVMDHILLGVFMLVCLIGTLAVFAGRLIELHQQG
# T4 sequence (P09690 24-501): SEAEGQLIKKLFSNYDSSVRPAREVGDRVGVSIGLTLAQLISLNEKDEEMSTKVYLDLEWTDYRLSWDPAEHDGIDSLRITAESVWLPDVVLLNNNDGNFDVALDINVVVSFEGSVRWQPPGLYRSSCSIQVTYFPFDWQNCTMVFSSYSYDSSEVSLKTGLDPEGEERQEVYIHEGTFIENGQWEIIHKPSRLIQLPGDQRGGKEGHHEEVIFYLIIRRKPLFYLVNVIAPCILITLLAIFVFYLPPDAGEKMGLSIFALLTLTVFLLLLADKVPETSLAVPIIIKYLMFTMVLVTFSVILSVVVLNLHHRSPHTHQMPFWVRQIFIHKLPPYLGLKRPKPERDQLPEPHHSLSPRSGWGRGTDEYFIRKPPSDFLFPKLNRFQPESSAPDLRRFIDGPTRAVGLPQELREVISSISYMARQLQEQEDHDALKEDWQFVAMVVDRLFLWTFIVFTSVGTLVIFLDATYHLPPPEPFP
# T4 sequence (P20782 21-493): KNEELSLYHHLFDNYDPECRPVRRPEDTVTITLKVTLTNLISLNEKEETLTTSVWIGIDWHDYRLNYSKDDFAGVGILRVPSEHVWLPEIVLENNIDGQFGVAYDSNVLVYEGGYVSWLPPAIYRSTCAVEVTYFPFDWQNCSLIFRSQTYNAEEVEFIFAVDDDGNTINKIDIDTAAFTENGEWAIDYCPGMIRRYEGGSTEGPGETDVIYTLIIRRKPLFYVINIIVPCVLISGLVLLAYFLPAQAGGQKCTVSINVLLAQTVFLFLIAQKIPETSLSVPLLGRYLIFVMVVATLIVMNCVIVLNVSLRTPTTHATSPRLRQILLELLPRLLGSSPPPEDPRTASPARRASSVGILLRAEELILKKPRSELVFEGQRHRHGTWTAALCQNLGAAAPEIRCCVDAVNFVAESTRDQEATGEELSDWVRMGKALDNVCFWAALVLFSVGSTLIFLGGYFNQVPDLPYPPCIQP
# T4 sequence (P02716 25-520): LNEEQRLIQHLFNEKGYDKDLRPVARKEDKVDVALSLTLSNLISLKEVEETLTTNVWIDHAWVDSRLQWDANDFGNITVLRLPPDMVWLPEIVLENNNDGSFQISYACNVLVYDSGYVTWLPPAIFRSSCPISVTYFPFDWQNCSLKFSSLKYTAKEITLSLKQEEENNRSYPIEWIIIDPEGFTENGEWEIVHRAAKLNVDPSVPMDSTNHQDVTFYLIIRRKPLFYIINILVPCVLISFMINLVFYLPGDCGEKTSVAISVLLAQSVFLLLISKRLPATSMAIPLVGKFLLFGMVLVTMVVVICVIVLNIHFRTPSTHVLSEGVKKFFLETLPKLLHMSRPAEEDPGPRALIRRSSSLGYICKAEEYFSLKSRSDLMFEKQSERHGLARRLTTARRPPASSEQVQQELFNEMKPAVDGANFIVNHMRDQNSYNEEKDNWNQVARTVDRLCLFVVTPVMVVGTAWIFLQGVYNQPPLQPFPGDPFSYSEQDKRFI
# Experimental: (§7) Initial profiling against heteromeric receptors: The test compounds for their ability to activate or inhibit other nAChR subtypes were evaluated. Agonist activity was evaluated by applying the compounds at 100 or 30 μM to human α4β2 and α3β4 as well as to mouse muscle α1β1εδ nAChR expressed in Xenopus oocytes. […] The inhibitory activity was generally low (Table 3).
# as §5, §6, §4
# α7 nAChR [6] = target: T1, α7 nAChR; assay: α7 responses to drugs co-applied with the PAM PNU-120596 (silent agonism); assay type: cell-based; details: drug 30 μM + 10 μM PNU-120596; normalized to 30 μM ACh + 10 μM PNU-120596
# Text: as §2, §3, §4
# α9α10 nAChR [7] = target: T3, α9α10 nAChR; assay: Two-electrode voltage-clamp, agonist concentration-response, α9α10 nAChR in Xenopus oocytes; assay type: cell-based; details: peak currents, ± standard error of fit
# Text: as §1, §5, §6
# as §4, with “The errors in the tables are the calculated standard errors of the fit parameters based on the goodness of fit.” left out
# α3β4 nAChR = target: T5, α3β4 nAChR (Homo sapiens, UniProt P30926+P32297); assay: Inhibition of control ACh responses by co-application, α3β4 nAChR in oocytes; assay type: cell-based; details: 3 μM compound co-applied with ACh; fraction of control ACh response
# T5 construct: expressed in transfected cells; host or cells: Xenopus laevis oocytes
# Experimental: as §7, §5, §6, §4
# α4β2 nAChR = target: T6, α4β2 nAChR (Homo sapiens, UniProt P17787+P43681); assay: Inhibition of control ACh responses by co-application, α4β2 nAChR in oocytes; assay type: cell-based; details: 3 μM compound co-applied with ACh; fraction of control ACh response
# T6 construct: expressed in transfected cells; host or cells: Xenopus laevis oocytes
# T6 sequence (P43681 29-627 limits assumed): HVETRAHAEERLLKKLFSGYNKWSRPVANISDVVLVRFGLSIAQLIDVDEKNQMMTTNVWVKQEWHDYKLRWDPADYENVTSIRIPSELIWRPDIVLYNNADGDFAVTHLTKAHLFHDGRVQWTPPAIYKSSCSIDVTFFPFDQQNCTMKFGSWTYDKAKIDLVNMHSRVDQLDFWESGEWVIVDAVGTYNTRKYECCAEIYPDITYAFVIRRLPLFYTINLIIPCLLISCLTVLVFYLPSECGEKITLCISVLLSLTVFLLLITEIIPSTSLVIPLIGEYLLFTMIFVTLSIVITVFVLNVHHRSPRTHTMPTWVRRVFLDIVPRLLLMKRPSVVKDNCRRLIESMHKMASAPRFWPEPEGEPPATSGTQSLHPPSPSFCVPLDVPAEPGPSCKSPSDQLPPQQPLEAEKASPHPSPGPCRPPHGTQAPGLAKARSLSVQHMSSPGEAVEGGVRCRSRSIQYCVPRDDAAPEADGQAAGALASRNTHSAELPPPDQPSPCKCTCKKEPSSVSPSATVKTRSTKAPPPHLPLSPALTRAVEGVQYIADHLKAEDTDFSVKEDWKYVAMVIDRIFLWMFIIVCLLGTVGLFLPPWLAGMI
# T6 sequence (P17787 26-502): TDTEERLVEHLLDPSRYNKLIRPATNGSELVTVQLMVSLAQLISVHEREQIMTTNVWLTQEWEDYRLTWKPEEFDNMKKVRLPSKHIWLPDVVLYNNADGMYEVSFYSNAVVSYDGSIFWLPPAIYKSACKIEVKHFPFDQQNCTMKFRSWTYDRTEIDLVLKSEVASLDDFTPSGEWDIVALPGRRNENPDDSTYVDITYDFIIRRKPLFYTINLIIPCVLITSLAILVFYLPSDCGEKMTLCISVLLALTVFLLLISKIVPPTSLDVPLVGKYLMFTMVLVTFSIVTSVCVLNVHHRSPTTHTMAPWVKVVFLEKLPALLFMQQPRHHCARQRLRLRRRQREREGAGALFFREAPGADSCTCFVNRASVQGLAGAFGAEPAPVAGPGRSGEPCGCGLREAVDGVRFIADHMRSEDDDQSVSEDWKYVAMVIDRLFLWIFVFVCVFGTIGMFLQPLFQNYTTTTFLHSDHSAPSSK
# Experimental: as §7, §5, §6, §4
compound,measurement,setting,value
"C[N+]1(C)CCCCC1 [diM-piperidinium, reference compound]",Agonist character at α7,α7 nAChR [1],essentially a full agonist
"CC[N+]1(CC)CCN(c2ccc(C(F)(F)F)cc2)CC1 [pCF3-diEPP, reference compound]",Agonist character at α9,α9 nAChR [2],partial agonist
"CC[N+]1(CC)CCCCC1 [diE-piperidinium, reference compound]",Agonist character at α7,α7 nAChR [1],silent agonist
"CC[N+]1(CC)CCN(c2ccc(C(=O)Nc3cccc(C)n3)cc2)CC1.[I-] [Compound 2, 1,1-diethyl-4-(4-((6-methylpyridin-2-yl)carbamoyl)phenyl)piperazin-1-ium iodide]",α9α10 Imax,α9α10 nAChR [3],0.90 ± 0.02
same,Agonist character / efficacy at α7,α7 nAChR [4],partial agonist
same,EC50,α7 nAChR [1]; data taken from Papke et al. (2022),4.3 to 6.4 µM
same,Agonist character at α7,α7 nAChR [1],partial agonists
same,α7 Imax,"α7 nAChR [1]; relative to ACh (Imax = 1), data taken from Papke et al. (2022)",0.40-0.57
same,Agonist character / efficacy at α9,α9 nAChR [5],full agonist
same,Agonist character at α9,α9 nAChR [2],full α9 agonist
"CC[N+]1(CC)CCN(c2ccc(C(=O)N3CCCC3)cc2)CC1.[I-] [Compound 3a, 1,1-diethyl-4-(4-(pyrrolidine-1-carbonyl)phenyl)piperazin-1-ium iodide]",Agonist character / efficacy at α7,α7 nAChR [4],lost agonism
same,EC50,"α7 nAChR [4]; net charge, ± standard error of fit",500 ± 500 µM
same,α7 Imax,"α7 nAChR [4]; relative to ACh (Imax = 1), net charge, ± standard error of fit",0.06 ± 0.11 and 0.06
same,"Effect of co-application on the control ACh responses, α1β1εδ",α1β1εδ nAChR,0.541 ± 0.048
same,"Response co-applied with PNU-120596, normalized to ACh co-applied with PNU-120596",α7 nAChR [6],0.01
same,EC50,α9α10 nAChR [7],15 ± 3.1 µM
same,α9α10 Imax,α9α10 nAChR [7]; relative to ACh (Imax = 1),0.56 ± 0.04
same,"Effect of co-application on the control ACh responses, α3β4",α3β4 nAChR,0.849 ± 0.034
same,"Effect of co-application on the control ACh responses, α4β2",α4β2 nAChR,0.919 ± 0.022
same,Agonist character / efficacy at α9,α9 nAChR [5],moderate efficacy
same,EC50,"α9 nAChR [5]; peak currents, ± standard error of fit",45 ± 22 µM
same,α9 Imax,"α9 nAChR [5]; relative to ACh (Imax = 1), peak currents, ± standard error of fit",0.69 ± 0.09
